Here are results for 16 compounds from publication PMC12064818, “A general assay platform to study protein pharmacology using ligand-dependent structural dynamics” (Nature Communications, 2025).

In assay [1] the target is T1, NLuc (Oplophorus gracilirostris, UniProt Q9GV45, A31E/A60N/A81I/F95D/I117V/K70R/L54V/L99Q/M102K/N193R/P142E/Q151K/Q38R/Q45L/V71I/Y165I).
T1 construct: His tag (inferred from IMAC purification); made in house; host or cells: E. coli
Format: biochemical. The note with it: - ATP. On the procedure:
Compounds and controls were added to plates as described in Supplementary Data 8. Nano-Glo luciferase assay reagent (Promega) was prepared fresh according to manufacturer’s protocol, filtered and added at 3 μL per well across assay plates with a BioRaptr2 dispenser. Enzyme was incubated with Nano-Glo reagent for 10 min and NLuc luminescence was read on a ViewLux CCD imager (PerkinElmer), with 1 s exposure with medium gain and 2x binning. Data were normalized to average no enzyme control as 100% enzyme inhibition and average DMSO neutral control. See Supplementary Table 4 for additional details.
Supplementary Table 4. […]
Sequence Param eter Value Description […]
5 Detector ViewLux Read plate lum inescence (Exposure = 1- 10 sec; Gain = Medium -high; Speed = Slow;
Dispensing solution was diluted in 1X PBS, pH 7.4.
NanoLuc luciferase (NLuc) enzym atic lum inescence assay […]
Nano-Glo luciferase assay reagent (Prom ega, Cat # N1120) prepared according to m anufacturer’s recom m endations,
4 com ponents stored at -30 °C until use, and reagent prepared fresh for each assay.
syringe filter prior to dispense.

For assay [2], the target named is P. pyralis FLuc (Photinus pyralis, UniProt P08659). In words: FLuc enzymatic luminescence assay, P. pyralis FLuc. Format: biochemical. The note with it: FLuc enzymatic assay; for Efficacy (%) FLuc E: Clade S follow-up; for IC50: read-out: IC50 or SDR50 (mM) FLuc E. The gist of the method:
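Runs with and without 10 µM ATP: compounds were pre-incubated with FLuc (1–10 nM, PBS pH 7.4) at ambient temperature, light-protected, for 30–60 min. Luminescence was imaged 5 min after adding 10 µM D-luciferin (final). Inhibition was scaled between DMSO neutral and no-enzyme controls.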

For assay [3], the target named is FLuc-C-NLuc (firefly luciferase) (Photinus pyralis, UniProt P08659, form not given/L550V). In words: SDR assay, FLuc-C-NLuc. The following applies: - ATP.
FLuc-C-NLuc (firefly luciferase), sequence (P08659 2-550 L550V, form open): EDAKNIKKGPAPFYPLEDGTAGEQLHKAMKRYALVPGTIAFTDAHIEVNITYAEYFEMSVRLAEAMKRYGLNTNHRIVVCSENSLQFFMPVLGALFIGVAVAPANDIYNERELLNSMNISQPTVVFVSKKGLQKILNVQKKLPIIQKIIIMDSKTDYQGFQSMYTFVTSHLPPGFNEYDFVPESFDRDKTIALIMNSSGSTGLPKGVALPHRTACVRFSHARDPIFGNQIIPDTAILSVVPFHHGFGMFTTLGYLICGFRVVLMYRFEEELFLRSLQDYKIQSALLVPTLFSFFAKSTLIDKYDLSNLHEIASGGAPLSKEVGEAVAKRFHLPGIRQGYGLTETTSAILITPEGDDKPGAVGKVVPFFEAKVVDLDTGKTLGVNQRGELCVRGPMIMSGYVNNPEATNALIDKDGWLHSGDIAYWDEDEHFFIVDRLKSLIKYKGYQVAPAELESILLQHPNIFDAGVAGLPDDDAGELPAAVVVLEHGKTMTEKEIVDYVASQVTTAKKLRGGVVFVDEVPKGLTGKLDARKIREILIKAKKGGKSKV
The target of assay [4] is FLuc-C-HiBiT (firefly luciferase) (Photinus pyralis, UniProt P08659, form not given/L550V). In words: SDR assay, FLuc-C-HiBiT. The note with it: SDR max. response, clade S. Background: HiBiT is a short tag that completes a luciferase, so light tracks the accessible tagged protein.
FLuc-C-HiBiT (firefly luciferase), sequence (P08659 2-550 L550V, form open): as above

A word on the IC50: it is the concentration at which inhibition is half-maximal.

T1 sequence (Q9GV45 other isoform, or with tags, fused parts or gaps with the stated changes): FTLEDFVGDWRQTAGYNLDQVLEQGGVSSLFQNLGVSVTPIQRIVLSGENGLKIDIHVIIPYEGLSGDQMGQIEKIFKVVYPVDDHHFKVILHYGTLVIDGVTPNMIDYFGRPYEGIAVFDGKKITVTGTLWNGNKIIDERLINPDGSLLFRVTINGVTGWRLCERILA
P. pyralis FLuc, sequence (P08659 whole entry): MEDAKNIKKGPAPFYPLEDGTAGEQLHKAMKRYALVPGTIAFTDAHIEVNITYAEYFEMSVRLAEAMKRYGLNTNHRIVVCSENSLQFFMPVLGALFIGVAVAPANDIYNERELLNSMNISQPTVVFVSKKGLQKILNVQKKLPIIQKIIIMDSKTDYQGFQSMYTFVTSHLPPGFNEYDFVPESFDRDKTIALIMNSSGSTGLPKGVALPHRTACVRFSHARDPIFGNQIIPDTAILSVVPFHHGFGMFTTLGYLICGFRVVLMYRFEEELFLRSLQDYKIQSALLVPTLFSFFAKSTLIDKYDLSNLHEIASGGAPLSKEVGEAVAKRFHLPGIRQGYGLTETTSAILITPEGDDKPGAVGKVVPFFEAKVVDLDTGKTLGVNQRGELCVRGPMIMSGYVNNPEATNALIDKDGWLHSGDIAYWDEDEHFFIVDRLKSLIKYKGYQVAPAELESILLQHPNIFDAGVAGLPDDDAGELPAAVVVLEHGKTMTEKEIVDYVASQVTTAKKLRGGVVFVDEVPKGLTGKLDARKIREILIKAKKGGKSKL

On to `O=C(NCc1ccc(F)cc1F)C1CCN(C(=O)c2ncn3c2COC(c2ccccc2)C3)CC1` (stereo not shown) [NCGC00449785-01], for which the “Efficacy (%) NLuc (- ATP)” value in assay [1] was found to be 0.00%. Further, in assay [2], the “pIC50 or pSDR50 FLuc E” value is reported as 5.06, the “Efficacy (%) FLuc E” value is recorded as -69.49% and the half-inhibitory concentration (IC50) worked out at 0.0088 mM. In assay [3], the “Efficacy (%) FLuc-C-NLuc SDR (-ATP)” value was determined as 0.00%. Further, in assay [4], the “% Activity (max response, + ATP)” value is reported as 291.32% and the “% Activity (max response, - ATP)” value worked out at 0.00%.
With `O=C(NCc1ccccc1Cl)C1CCN(C(=O)c2ncn3c2COC(c2ccccc2)C3)CC1` (stereo not shown) [NCGC00449786-01], the “Efficacy (%) NLuc (- ATP)” value in assay [1] is listed as 15.00%. Also, in assay [2], the “pIC50 or pSDR50 FLuc E” value is 5.01, the “Efficacy (%) FLuc E” value was -73.36% and the IC50 amounted to 0.00988 mM. In addition, in assay [3], the “Efficacy (%) FLuc-C-NLuc SDR (-ATP)” value was 0.00%. In addition, in assay [4], the “% Activity (max response, + ATP)” value is 336.94% and the “% Activity (max response, - ATP)” value is 0.00%.
As to `O=C(NCc1cccc(Cl)c1)C1CCN(C(=O)c2ncn3c2COC(c2ccccc2)C3)CC1` (stereo not shown) [NCGC00449787-01], the “Efficacy (%) NLuc (- ATP)” value in assay [1] was -16.86%. Also, in assay [2], the “pIC50 or pSDR50 FLuc E” value is 4.96, the “Efficacy (%) FLuc E” value was -81.06% and the IC50 turned out to be 0.0111 mM. Further, the “Efficacy (%) FLuc-C-NLuc SDR (-ATP)” value in assay [3] is given as 0.00%. Moreover, in assay [4], the “% Activity (max response, + ATP)” value is reported as 263.69% and the “% Activity (max response, - ATP)” value stood at 0.00%.
Regarding `O=C(NCc1ccc(Cl)cc1)C1CCN(C(=O)c2ncn3c2COC(c2ccccc2)C3)CC1` (stereo not shown) [NCGC00449788-01], the “Efficacy (%) NLuc (- ATP)” value in assay [1] is listed as 0.00%. For the same compound, in assay [2], the “pIC50 or pSDR50 FLuc E” value is listed as 5.41, the “Efficacy (%) FLuc E” value was -95.09% and the IC50 stood at 0.00393 mM. Also, the “Efficacy (%) FLuc-C-NLuc SDR (-ATP)” value in assay [3] is reported as 0.00%. For the same compound, in assay [4], the “% Activity (max response, + ATP)” value is on record as 324.91% and the “% Activity (max response, - ATP)” value was found to be 0.00%.
Take `O=C(NCc1ccc(F)c(Cl)c1)C1CCN(C(=O)c2ncn3c2COC(c2ccccc2)C3)CC1` (stereo not shown) [NCGC00449790-01]: in assay [1], the “Efficacy (%) NLuc (- ATP)” value is on record as -17.00%. Besides, in assay [2], the “pIC50 or pSDR50 FLuc E” value was 5.46, the “Efficacy (%) FLuc E” value is -95.32% and the 50% inhibitory concentration (IC50) came out at 0.0035 mM. In assay [3], the “Efficacy (%) FLuc-C-NLuc SDR (-ATP)” value is reported as 0.00%. For the same compound, in assay [4], the “% Activity (max response, + ATP)” value was determined as 237.76% and the “% Activity (max response, - ATP)” value is listed as 0.00%.
Regarding `O=C(NCCCc1ccccc1)C1CCN(C(=O)c2ncn3c2COC(c2ccccc2)C3)CC1` (stereo not shown) [NCGC00449797-01], the “Efficacy (%) NLuc (- ATP)” value in assay [1] worked out at 0.00%. Also, in assay [2], the “pIC50 or pSDR50 FLuc E” value was 5.36, the “Efficacy (%) FLuc E” value is reported as -79.71% and the IC50 was 0.00441 mM. The “Efficacy (%) FLuc-C-NLuc SDR (-ATP)” value in assay [3] was 0.00%. Also, in assay [4], the “% Activity (max response, + ATP)” value is 265.99% and the “% Activity (max response, - ATP)” value is listed as 0.00%.
Take `Cc1ccccc1CNC(=O)C1CCN(C(=O)c2ncn3c2COC(c2ccccc2)C3)CC1` (stereo not shown) [NCGC00449798-01]: the “Efficacy (%) NLuc (- ATP)” value in assay [1] is 0.00%. In assay [2], the “pIC50 or pSDR50 FLuc E” value amounted to 5.26, the “Efficacy (%) FLuc E” value is -85.12% and the IC50 turned out to be 0.00555 mM. Besides, in assay [3], the “Efficacy (%) FLuc-C-NLuc SDR (-ATP)” value was found to be 0.00%. In assay [4], the “% Activity (max response, + ATP)” value is listed as 370.72% and the “% Activity (max response, - ATP)” value worked out at 0.00%.
In the case of `O=C(NCc1cccc(F)c1)C1CCN(C(=O)c2ncn3c2COC(c2ccccc2)C3)CC1` (stereo not shown) [NCGC00449803-01], the “Efficacy (%) NLuc (- ATP)” value in assay [1] is reported as 0.00%. In addition, in assay [2], the “pIC50 or pSDR50 FLuc E” value stood at 5.11, the “Efficacy (%) FLuc E” value is reported as -83.73% and the IC50 was found to be 0.00784 mM. Also, the “Efficacy (%) FLuc-C-NLuc SDR (-ATP)” value in assay [3] is listed as 0.00%. Besides, in assay [4], the “% Activity (max response, + ATP)” value is given as 254.28% and the “% Activity (max response, - ATP)” value turned out to be 0.00%.
In the case of `CC(C)CNC(=O)C1CCN(C(=O)c2ncn3c2COC(c2ccc(F)cc2)C3)CC1` (stereo not shown) [NCGC00449805-01], the “Efficacy (%) NLuc (- ATP)” value in assay [1] is listed as 0.00%. Also, the “Efficacy (%) FLuc E” value in assay [2] is recorded as -24.33%. Further, the “Efficacy (%) FLuc-C-NLuc SDR (-ATP)” value in assay [3] is reported as 0.00%. In addition, in assay [4], the “% Activity (max response, + ATP)” value amounted to 48.51% and the “% Activity (max response, - ATP)” value amounted to 0.00%.
With `O=C(NC1CC1)C1CCN(C(=O)c2ncn3c2COC(c2ccc(F)cc2)C3)CC1` (stereo not shown) [NCGC00449806-01], the “Efficacy (%) NLuc (- ATP)” value in assay [1] came out at 0.00%. Also, in assay [2], the “pIC50 or pSDR50 FLuc E” value turned out to be 4.91, the “Efficacy (%) FLuc E” value is listed as -31.66% and the IC50 was 0.0124 mM. In addition, the “Efficacy (%) FLuc-C-NLuc SDR (-ATP)” value in assay [3] was 0.00%. Also, in assay [4], the “% Activity (max response, + ATP)” value is given as 47.67% and the “% Activity (max response, - ATP)” value was 0.00%.
`O=C(NC1CCCCC1)C1CCN(C(=O)c2ncn3c2COC(c2ccc(F)cc2)C3)CC1` (stereo not shown) [NCGC00449807-01]: the “Efficacy (%) NLuc (- ATP)” value in assay [1] is reported as 0.00%. Also, in assay [2], the “pIC50 or pSDR50 FLuc E” value was 4.96, the “Efficacy (%) FLuc E” value is on record as -25.30% and the half-maximal inhibitory concentration (IC50) stood at 0.0111 mM. In assay [3], the “Efficacy (%) FLuc-C-NLuc SDR (-ATP)” value turned out to be 0.00%. In assay [4], the “% Activity (max response, + ATP)” value is given as 42.77% and the “% Activity (max response, - ATP)” value is recorded as 0.00%.
Turning to `CC1CCC(NC(=O)C2CCN(C(=O)c3ncn4c3COC(c3ccc(F)cc3)C4)CC2)CC1` (stereo not shown) [NCGC00449808-01], the “Efficacy (%) NLuc (- ATP)” value in assay [1] was 0.00%. For the same compound, the “Efficacy (%) FLuc E” value in assay [2] is reported as -26.58%. Further, the “Efficacy (%) FLuc-C-NLuc SDR (-ATP)” value in assay [3] was determined as 0.00%. Besides, in assay [4], the “% Activity (max response, + ATP)” value amounted to 39.00% and the “% Activity (max response, - ATP)” value turned out to be 0.00%.
As for `O=C(NC1CCCCCC1)C1CCN(C(=O)c2ncn3c2COC(c2ccc(F)cc2)C3)CC1` (stereo not shown) [NCGC00449809-01], the “Efficacy (%) NLuc (- ATP)” value in assay [1] was 0.00%. The “Efficacy (%) FLuc E” value in assay [2] is reported as -10.94%. In addition, the “Efficacy (%) FLuc-C-NLuc SDR (-ATP)” value in assay [3] amounted to 0.00%. In assay [4], the “% Activity (max response, + ATP)” value is given as 14.91% and the “% Activity (max response, - ATP)” value turned out to be 0.00%.
Consider `O=C(NC1CCCCCCC1)C1CCN(C(=O)c2ncn3c2COC(c2ccc(F)cc2)C3)CC1` (stereo not shown) [NCGC00449810-01], for which the “Efficacy (%) NLuc (- ATP)” value in assay [1] stood at 0.00%. Further, in assay [2], the “pIC50 or pSDR50 FLuc E” value was 4.81, the “Efficacy (%) FLuc E” value is recorded as -21.88% and the IC50 was 0.0157 mM. In addition, the “Efficacy (%) FLuc-C-NLuc SDR (-ATP)” value in assay [3] was 0.00%. Moreover, in assay [4], the “% Activity (max response, + ATP)” value is 34.91% and the “% Activity (max response, - ATP)” value is given as 0.00%.
As to `O=C(NCCC1=CCCCC1)C1CCN(C(=O)c2ncn3c2COC(c2ccc(F)cc2)C3)CC1` (stereo not shown) [NCGC00449811-01], in assay [1], the “Efficacy (%) NLuc (- ATP)” value was 0.00%. In addition, in assay [2], the “pIC50 or pSDR50 FLuc E” value was found to be 5.01, the “Efficacy (%) FLuc E” value is reported as -41.16% and the IC50 stood at 0.00988 mM. Further, the “Efficacy (%) FLuc-C-NLuc SDR (-ATP)” value in assay [3] is 0.00%. In addition, in assay [4], the “% Activity (max response, + ATP)” value turned out to be 50.67% and the “% Activity (max response, - ATP)” value is 0.00%.
In the case of `CCCCNC(=O)C1CCN(C(=O)c2ncn3c2COC(c2ccc(F)cc2)C3)CC1` (stereo not shown) [NCGC00449812-01], the “Efficacy (%) NLuc (- ATP)” value in assay [1] came out at 0.00%. Further, in assay [2], the “pIC50 or pSDR50 FLuc E” value was 4.91, the “Efficacy (%) FLuc E” value is given as -17.96% and the IC50 amounted to 0.0124 mM. Besides, in assay [3], the “Efficacy (%) FLuc-C-NLuc SDR (-ATP)” value was 0.00%. Also, in assay [4], the “% Activity (max response, + ATP)” value is listed as 23.59% and the “% Activity (max response, - ATP)” value was found to be 0.00%.
